Molecules are shown by their SMILES. pIC50: −log10 of the molar value.

For the assay, the target named is human TRPV4 (Homo sapiens (Human), UniProt Q9HBA0). Nature of the assay: FLIPR assay for hTRPV4 expressed in BHK cells. The format is cell-based. The note with it: inhibition of Agonist Compound (EC80)-induced calcium signal; BHK/AC9 cells expressing human TRPV4; read-out: IC50. The gist of the method: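 BHK/AC9 cells transduced with BacMam human TRPV4 (MOI 78), 15,000 cells/well, cultured 24 h at 37 °C. Loaded with 2 μM Fluo-4 AM and 500 μM Brilliant Black in HBSS for 1–1.5 h at room temperature in the dark. Intracellular calcium influx monitored by fluorescence.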
Sequence of human TRPV4 (Q9HBA0 whole entry): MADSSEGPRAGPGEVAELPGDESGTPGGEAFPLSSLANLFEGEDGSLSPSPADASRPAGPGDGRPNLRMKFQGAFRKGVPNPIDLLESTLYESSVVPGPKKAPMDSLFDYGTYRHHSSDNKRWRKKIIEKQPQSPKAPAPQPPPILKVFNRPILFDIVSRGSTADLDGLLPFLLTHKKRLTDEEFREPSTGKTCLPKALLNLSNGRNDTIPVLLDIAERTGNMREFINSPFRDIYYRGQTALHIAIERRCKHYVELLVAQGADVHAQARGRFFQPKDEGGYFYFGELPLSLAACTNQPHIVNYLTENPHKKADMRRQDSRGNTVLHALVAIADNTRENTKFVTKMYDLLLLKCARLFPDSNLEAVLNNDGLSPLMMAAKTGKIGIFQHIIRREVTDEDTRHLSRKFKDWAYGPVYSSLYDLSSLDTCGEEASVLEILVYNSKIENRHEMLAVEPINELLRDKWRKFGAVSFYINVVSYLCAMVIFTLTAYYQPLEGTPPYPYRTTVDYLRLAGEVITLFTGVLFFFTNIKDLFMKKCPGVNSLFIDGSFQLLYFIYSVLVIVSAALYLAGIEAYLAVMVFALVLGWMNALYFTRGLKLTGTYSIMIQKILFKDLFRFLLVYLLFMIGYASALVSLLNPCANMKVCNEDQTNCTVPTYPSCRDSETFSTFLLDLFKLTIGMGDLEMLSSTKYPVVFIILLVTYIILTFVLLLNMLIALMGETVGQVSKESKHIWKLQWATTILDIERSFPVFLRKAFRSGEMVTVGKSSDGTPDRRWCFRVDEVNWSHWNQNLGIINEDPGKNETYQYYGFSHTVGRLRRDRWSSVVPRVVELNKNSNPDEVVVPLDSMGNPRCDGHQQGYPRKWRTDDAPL
For the compound `N#Cc1ccc(S(=O)(=O)[C@H]2CN(S(=O)(=O)c3ccc(Cl)cc3C#N)C[C@@]2(O)CO)cc1` [Example 84, 5-chloro-2-(((3R,4S)-4-((4-cyanophenyl)sulfonyl)-3-hydroxy-3-(hydroxymethyl)pyrrolidin-1-yl)sulfonyl)benzonitrile], the pIC50 – broadly, the negative decadic logarithm of the IC50, by convention in mol/L – is 8.00 to 10.00. The result for `O=S(=O)(c1ccc(Cl)c(F)c1)[C@H]1CN(S(=O)(=O)c2ccc(Cl)cc2Cl)C[C@@]1(O)CO` [Example 88, (3R,4S)-4-((4-chloro-3-fluorophenyl)sulfonyl)-1-((2,4-dichlorophenyl)sulfonyl)-3-(hydroxymethyl)pyrrolidin-3-ol] reads 8.00 to 10.00; that for `N#Cc1ccc(S(=O)(=O)[C@H]2CN(S(=O)(=O)c3ccc(OC(F)(F)F)cc3Cl)C[C@]2(O)CO)cc1F` [Example 8, 4-(((3S,4S)-1-((2-chloro-4-(trifluoromethoxy)phenyl)sulfonyl)-4-hydroxy-4-(hydroxymethyl)pyrrolidin-3-yl)sulfonyl)-2-fluorobenzonitrile], 7.00 to 8.00. Regarding `N#Cc1ccc(S(=O)(=O)N2C[C@H](S(=O)(=O)c3ccc(Br)cc3)[C@@](O)(CO)C2)c(Cl)c1` [Example 24, 4-(((3S,4S)-4-((4-bromophenyl)sulfonyl)-3-hydroxy-3-(hydroxymethyl)pyrrolidin-1-yl)sulfonyl)-3-chlorobenzonitrile], the negative logarithm of the IC50 (pIC50) is 7.00 to 8.00. The figure for `N#Cc1ccc(S(=O)(=O)N2C[C@H](S(=O)(=O)c3ccc(C(F)(F)F)cn3)[C@](O)(CO)C2)c(OC2CC2)c1` [Example 61, 3-cyclopropoxy-4-(((3R,4S)-3-hydroxy-3-(hydroxymethyl)-4-((5-(trifluoromethyl)pyridin-2-yl)sulfonyl)pyrrolidin-1-yl)sulfonyl)benzonitrile] is 7.00 to 8.00; for `N#Cc1ccc(S(=O)(=O)N2C[C@H](S(=O)(=O)c3ccc(Br)cc3)[C@](O)(CO)C2)c(Cl)c1` [Example 74, 4-(((3R,4S)-4-((4-bromophenyl)sulfonyl)-3-hydroxy-3-(hydroxymethyl)pyrrolidin-1-yl)sulfonyl)-3-chlorobenzonitrile] it is 8.00 to 10.00; for `N#Cc1ncccc1S(=O)(=O)N1C[C@H](S(=O)(=O)c2ccc(Cl)cc2)[C@](O)(CO)C1` [Example 111, 3-(((3R,4S)-4-((4-chlorophenyl)sulfonyl)-3-hydroxy-3-(hydroxymethyl)pyrrolidin-1-yl)sulfonyl)picolinonitrile] it is 7.00 to 8.00. For `N#Cc1ccc(S(=O)(=O)[C@H]2CN(S(=O)(=O)c3ccc(C(F)(F)F)cc3Cl)C[C@@]2(O)CO)cc1` [Example 89, 4-(((3S,4R)-1-((2-chloro-4-(trifluoromethyl)phenyl)sulfonyl)-4-hydroxy-4-(hydroxymethyl)pyrrolidin-3-yl)sulfonyl)benzonitrile], the pIC50 is 7.00 to 8.00. On to `Cc1ccc(S(=O)(=O)N2C[C@H](S(=O)(=O)c3ccc(C#N)c(F)c3)[C@@](O)(CO)C2)c(Cl)c1` [Example 6, 4-(((3S,4S)-1-((2-chloro-4-methylphenyl)sulfonyl)-4-hydroxy-4-(hydroxymethyl)pyrrolidin-3-yl)sulfonyl)-2-fluorobenzonitrile], for which the pIC50 was 7.00 to 8.00. The figure for `N#Cc1ccc(S(=O)(=O)N2C[C@H](S(=O)(=O)c3ccc(Br)cn3)[C@](O)(CO)C2)c(Cl)c1` [Example 113, 4-(((3R,4S)-4-((5-bromopyridin-2-yl)sulfonyl)-3-hydroxy-3-(hydroxymethyl)pyrrolidin-1-yl)sulfonyl)-3-chlorobenzonitrile] is 8.00 to 10.00; for `N#Cc1ccc(S(=O)(=O)[C@H]2CN(S(=O)(=O)c3ccc(C#N)cc3Cl)C[C@@]2(O)CO)cc1` [Example 45, 3-chloro-4-(((3R,4S)-4-((4-cyanophenyl)sulfonyl)-3-hydroxy-3-(hydroxymethyl)pyrrolidin-1-yl)sulfonyl)benzonitrile] it is 8.00 to 10.00.

Consider `N#Cc1cc(Cl)ccc1S(=O)(=O)N1C[C@H](S(=O)(=O)c2ccc(Cl)cc2)[C@](O)(CO)C1` [Example 17, 5-chloro-2-(((3R,4S)-4-((4-chlorophenyl)sulfonyl)-3-hydroxy-3-(hydroxymethyl)pyrrolidin-1-yl)sulfonyl)benzonitrile], for which the negative-log IC50 (pIC50) is 8.00 to 10.00. With `Cc1ccc(S(=O)(=O)N2C[C@H](S(=O)(=O)c3ccc(C#N)c(F)c3)[C@](O)(CO)C2)c(Cl)c1` [Example 13, 4-(((3S,4R)-1-((2-chloro-4-methylphenyl)sulfonyl)-4-hydroxy-4-(hydroxymethyl)pyrrolidin-3-yl)sulfonyl)-2-fluorobenzonitrile], the pIC50 is 8.00 to 10.00. The result for `N#Cc1cc(C(F)(F)F)ccc1S(=O)(=O)N1C[C@H](S(=O)(=O)c2ccc(F)c(F)c2)[C@@](O)(CO)C1` [Example 77, 2-(((3S,4S)-4-((3,4-difluorophenyl)sulfonyl)-3-hydroxy-3-(hydroxymethyl)pyrrolidin-1-yl)sulfonyl)-5-(trifluoromethyl)benzonitrile] reads 7.00 to 8.00; that for `O=S(=O)(c1ccc(Cl)cc1)[C@H]1CN(S(=O)(=O)c2ccc(CF)cc2Cl)C[C@@]1(O)CO` [Example 43, (3R,4S)-1-((2-chloro-4-(fluoromethyl)phenyl)sulfonyl)-4-((4-chlorophenyl)sulfonyl)-3-(hydroxymethyl)pyrrolidin-3-ol], 7.00 to 8.00. The result for `N#Cc1ccc(S(=O)(=O)N2C[C@H](S(=O)(=O)c3ccc(Cl)cc3)[C@@](O)(CO)C2)c(Cl)c1` [Example 23, 3-chloro-4-(((3S,4S)-4-((4-chlorophenyl)sulfonyl)-3-hydroxy-3-(hydroxymethyl)pyrrolidin-1-yl)sulfonyl)benzonitrile] reads 7.00 to 8.00; that for `N#Cc1ccc(S(=O)(=O)[C@H]2CN(S(=O)(=O)c3ccc(Cl)cc3Cl)C[C@]2(O)CO)cc1F` [Example 75, 4-(((3S,4S)-1-((2,4-dichlorophenyl)sulfonyl)-4-hydroxy-4-(hydroxymethyl)pyrrolidin-3-yl)sulfonyl)-2-fluorobenzonitrile], 8.00 to 10.00.

Turning to `N#Cc1ccc(S(=O)(=O)[C@H]2CN(S(=O)(=O)c3ccc(C(F)(F)F)cc3Cl)C[C@]2(O)CO)cc1` [Example 90, 4-(((3S,4S)-1-((2-chloro-4-(trifluoromethyl)phenyl)sulfonyl)-4-hydroxy-4-(hydroxymethyl)pyrrolidin-3-yl)sulfonyl)benzonitrile], the pIC50 is 7.00 to 8.00. The result for `N#Cc1ccc(S(=O)(=O)[C@H]2CN(S(=O)(=O)c3ccc(F)cc3Cl)C[C@]2(O)CO)cc1F` [Example 5, 4-(((3S,4S)-1-((2-chloro-4-fluorophenyl)sulfonyl)-4-hydroxy-4-(hydroxymethyl)pyrrolidin-3-yl)sulfonyl)-2-fluorobenzonitrile] reads 7.00 to 8.00.

Consider `Cc1cc(C#N)ccc1S(=O)(=O)N1C[C@H](S(=O)(=O)c2ccc(C#N)c(F)c2)[C@](O)(CO)C1` [Example 70, 4-(((3S,4R)-1-((4-cyano-2-methylphenyl)sulfonyl)-4-hydroxy-4-(hydroxymethyl)pyrrolidin-3-yl)sulfonyl)-2-fluorobenzonitrile], for which the negative-log IC50 (pIC50) is 8.00 to 10.00. The figure for `N#Cc1ccc(S(=O)(=O)[C@H]2CN(S(=O)(=O)c3cc(F)c(Cl)cc3Cl)C[C@@]2(O)CO)cc1F` [Example 16, 4-(((3S,4R)-1-((2,4-dichloro-5-fluorophenyl)sulfonyl)-4-hydroxy-4-(hydroxymethyl)pyrrolidin-3-yl)sulfonyl)-2-fluorobenzonitrile] is 8.00 to 10.00; for `N#Cc1c(F)cc(S(=O)(=O)[C@H]2CN(S(=O)(=O)c3ccc(Cl)cc3Cl)C[C@@]2(O)CO)cc1F` [Example 87, 4-(((3S,4R)-1-((2,4-dichlorophenyl)sulfonyl)-4-hydroxy-4-(hydroxymethyl)pyrrolidin-3-yl)sulfonyl)-2,6-difluorobenzonitrile] it is 8.00 to 10.00. The result for `N#Cc1ccc(S(=O)(=O)[C@H]2CN(S(=O)(=O)c3ccccc3Cl)C[C@]2(O)CO)cc1F` [Example 4, 4-(((3S,4S)-1-((2-chlorophenyl)sulfonyl)-4-hydroxy-4-(hydroxymethyl)pyrrolidin-3-yl)sulfonyl)-2-fluorobenzonitrile] reads 7.00 to 8.00. As for `N#Cc1ccc(S(=O)(=O)N2C[C@H](S(=O)(=O)c3ccc(C(F)(F)F)nc3)[C@](O)(CO)C2)c(Cl)c1` [Example 26, 3-chloro-4-(((3R,4S)-3-hydroxy-3-(hydroxymethyl)-4-((6-(trifluoromethyl)pyridin-3-yl)sulfonyl)pyrrolidin-1-yl)sulfonyl)benzonitrile], the negative-log IC50 (pIC50) is 7.00 to 8.00. As to `N#Cc1cc(S(=O)(=O)[C@H]2CN(S(=O)(=O)c3ccc(Cl)cc3Cl)C[C@@]2(O)CO)ccc1Cl` [Example 103, 2-chloro-5-(((3S,4R)-1-((2,4-dichlorophenyl)sulfonyl)-4-hydroxy-4-(hydroxymethyl)pyrrolidin-3-yl)sulfonyl)benzonitrile], the pIC50 was 7.00 to 8.00. The result for `C[C@@H](O)[C@]1(O)CN(S(=O)(=O)c2ccc(C#N)cc2Cl)C[C@@H]1S(=O)(=O)c1ccc(Cl)cn1` [Example 120, 3-chloro-4-(((3R,4S)-4-((5-chloropyridin-2-yl)sulfonyl)-3-hydroxy-3-((R)-1-hydroxyethyl)pyrrolidin-1-yl)sulfonyl)benzonitrile] reads 8.00 to 10.00. Take `COc1cc(C#N)ccc1S(=O)(=O)N1C[C@H](S(=O)(=O)c2ccc(Cl)cc2)[C@](O)(CO)C1` [Example 35, 4-(((3R,4S)-4-((4-chlorophenyl)sulfonyl)-3-hydroxy-3-(hydroxymethyl)pyrrolidin-1-yl)sulfonyl)-3-methoxybenzonitrile]: the pIC50 was 8.00 to 10.00. The result for `N#Cc1ccc(S(=O)(=O)[C@H]2CN(S(=O)(=O)c3ccc(F)cc3Cl)C[C@@]2(O)CO)cc1F` [Example 12, 4-(((3S,4R)-1-((2-chloro-4-fluorophenyl)sulfonyl)-4-hydroxy-4-(hydroxymethyl)pyrrolidin-3-yl)sulfonyl)-2-fluorobenzonitrile] reads 8.00 to 10.00.

The record behind these values is US11260049B2, “TRPV4 antagonists” (GlaxoSmithKline Intellectual Property (No. 2) Limited, priority 2016, dated 2022).
